Experimental data taken from patent publication US20150210641A1, “NOVEL CYTOCHROME P450 INHIBITORS AND THEIR METHOD OF USE” (CORTENDO AB (PUBL), priority 2014, published 2015).

What was measured:
Assay type in all cases: cell-based
recombinant CYP-21 = target: T1, recombinant CYP-21 (Homo sapiens, UniProt P08686); assay: Cyp21 assay: 11-deoxycortisol formation from 17-OH Progesterone in AD293 cells, LC/MS; conditions: AD293 cells stably over-expressing recombinant CYP-21; eight concentrations 10 μM to 4.5 nM
T1 construct: expressed in transfected cells
T1 sequence (P08686 1-495): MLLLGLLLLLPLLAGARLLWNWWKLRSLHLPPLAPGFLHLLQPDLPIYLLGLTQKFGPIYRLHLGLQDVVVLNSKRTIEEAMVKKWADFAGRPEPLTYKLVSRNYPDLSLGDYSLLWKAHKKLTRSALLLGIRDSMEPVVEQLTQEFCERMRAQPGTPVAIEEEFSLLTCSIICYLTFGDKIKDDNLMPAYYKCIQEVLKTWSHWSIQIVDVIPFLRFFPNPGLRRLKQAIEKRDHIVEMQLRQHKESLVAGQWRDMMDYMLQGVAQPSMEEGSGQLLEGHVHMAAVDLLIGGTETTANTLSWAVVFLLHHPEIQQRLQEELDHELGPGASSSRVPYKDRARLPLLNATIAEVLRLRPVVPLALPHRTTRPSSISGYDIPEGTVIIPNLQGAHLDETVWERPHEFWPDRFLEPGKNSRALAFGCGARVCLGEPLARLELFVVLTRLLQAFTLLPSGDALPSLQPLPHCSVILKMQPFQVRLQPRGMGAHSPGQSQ
Procedure: Cyp21 assay protocol: AD293 cells that stably over-express recombinant CYP-21 were seeded in 96 well plates coated with poly D-lysine (10,000 cell per well) and incubated at 37° C. for 24 hours in Dulbecco's Modified Eagle Medium (DMEM) with Fetal Bovine Serum (FBS) that is stripped of hormones by charcoal treatment. The media is then removed, the cells are washed once with Phosphate buffer saline solution, and 50 μL Dulbecco's Modified Eagle Medium (DMEM) with Fetal Bovine Serum (FBS) that is stripped of hormones by charcoal treatment is added. Compounds of the disclosure are then added to the wells in eight concentration spanning 10 μM to 4.5 nM, and the plates are incubated for an additional 60 minutes at 37° C. 17-OH Progesterone is then added ([…]) and the plates are incubated for an additional 45 minutes at 37° C. After incubation, 50 uL of the supernatant (medium) is transferred into a fresh plate and 150 uL of an acetonitrile solution containing 200 ng/ml of Telmisartan is added. The sample is mixed and then placed in a centrifuge at 2000 rpm for 5 minutes.

recombinant CYP-17 = target: T2, recombinant CYP-17 (Homo sapiens, UniProt P05093); assay: Cyp17 assay: 3H-acetic acid release from [21-3H] 17α-hydroxyl-Pregnenolone in AD293 cells; conditions: AD293 cells stably over-expressing recombinant CYP-17; eight concentrations 10 μM to 4.5 nM
T2 construct: expressed in transfected cells
T2 sequence (P05093 1-508): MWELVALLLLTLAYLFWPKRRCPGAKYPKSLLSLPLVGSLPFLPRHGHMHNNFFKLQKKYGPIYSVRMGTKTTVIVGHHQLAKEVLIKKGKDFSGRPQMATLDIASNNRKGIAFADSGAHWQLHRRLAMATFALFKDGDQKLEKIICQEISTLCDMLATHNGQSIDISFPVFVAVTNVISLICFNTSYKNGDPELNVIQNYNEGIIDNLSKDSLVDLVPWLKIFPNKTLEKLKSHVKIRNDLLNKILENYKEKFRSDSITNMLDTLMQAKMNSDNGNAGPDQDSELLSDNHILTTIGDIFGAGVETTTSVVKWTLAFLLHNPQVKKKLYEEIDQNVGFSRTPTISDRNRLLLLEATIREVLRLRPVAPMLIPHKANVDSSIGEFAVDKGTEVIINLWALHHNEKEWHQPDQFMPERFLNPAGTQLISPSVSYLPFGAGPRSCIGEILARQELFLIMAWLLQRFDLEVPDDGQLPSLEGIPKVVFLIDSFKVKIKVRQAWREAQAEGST
Procedure: Cyp17 assay protocol: AD293 cells that stably over-express recombinant CYP-17 were seeded in 96 well plates coated with poly D-lysine (15,000 cell per well) and incubated at 37° C. for 24 hours in Dulbecco's Modified Eagle Medium (DMEM) with Fetal Bovine Serum (FBS) that is stripped of hormones by charcoal treatment. The media is then removed, the cells are washed once with Phosphate buffer saline solution, and 50 μL Dulbecco's Modified Eagle Medium (DMEM) with Fetal Bovine Serum (FBS) that is stripped of hormones by charcoal treatment is added. Compounds of the disclosure are then added to the wells in eight concentration spanning 10 μM to 4.5 nM, and the plates are incubated for an additional 60 minutes at 37° C. [21-^3H] 17α-hydroxyl-Pregnenolone is then added (50 nCi per well, 31.25 nM) and the plates are incubated for an additional 4 hours at 37° C. The media is then collected, 200 μL of chloroform is added, and the mixture is shaken for 1 hour. The aqueous layer is then separated and analyzed for the presence of ^3H-acetic acid using a Perkin Elmer Topcount NXT to determine IC50s of the compounds of the disclosure.

recombinant CYP-11 = target: T3, recombinant CYP-11 (Homo sapiens, UniProt P15538); assay: Cyp11 assay: cortisol formation from 11-deoxycortisol in AD293 cells, LC/MS; conditions: AD293 cells stably over-expressing recombinant CYP-11; eight concentrations 10 μM to 4.5 nM
T3 construct: expressed in transfected cells
T3 sequence (P15538 25-503): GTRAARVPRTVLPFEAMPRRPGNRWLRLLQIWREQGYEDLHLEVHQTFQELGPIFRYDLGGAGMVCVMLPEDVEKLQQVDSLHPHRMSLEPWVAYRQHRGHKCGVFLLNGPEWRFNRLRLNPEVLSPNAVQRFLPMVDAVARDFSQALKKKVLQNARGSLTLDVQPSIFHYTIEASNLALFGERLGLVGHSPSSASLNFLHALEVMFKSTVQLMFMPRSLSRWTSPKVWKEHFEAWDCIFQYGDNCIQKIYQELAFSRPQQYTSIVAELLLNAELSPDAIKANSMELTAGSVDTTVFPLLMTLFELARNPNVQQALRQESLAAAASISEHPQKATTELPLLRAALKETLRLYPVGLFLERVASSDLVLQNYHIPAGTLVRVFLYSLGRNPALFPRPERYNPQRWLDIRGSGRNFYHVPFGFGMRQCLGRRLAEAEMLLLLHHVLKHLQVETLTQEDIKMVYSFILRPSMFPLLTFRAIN
Procedure: Cyp11 assay protocol: AD293 cells that stably over-express recombinant CYP-11 were seeded in 96 well plates coated with poly D-lysine (15,000 cell per well) and incubated at 37° C. for 24 hours in Dulbecco's Modified Eagle Medium (DMEM) with Fetal Bovine Serum (FBS) that is stripped of hormones by charcoal treatment. The media is then removed, the cells are washed once with Phosphate buffer saline solution, and 50 μL Dulbecco's Modified Eagle Medium (DMEM) with Fetal Bovine Serum (FBS) that is stripped of hormones by charcoal treatment is added. Compounds of the disclosure are then added to the wells in eight concentration spanning 10 μM to 4.5 nM, and the plates are incubated for an additional 60 minutes at 37° C. 11-deoxycortisol is then added ([…]) and the plates are incubated for an additional 12 hours at 37° C. After incubation, 50 uL of the supernatant (medium) is transferred into a fresh plate and 150 uL of an acetonitrile solution containing 200 ng/ml of Telmisartan is added. The sample is mixed and then placed in a centrifuge at 2000 rpm for 5 minutes. 100 uL of the supernatant is transferred into a fresh 96 well deep well plate, 100 uL of 1:1 methanol: water was added, the solution was mixed and then analyzed by LC/MS for the presence of cortisol using an Agilent 1200 RRLC/ABSCIEX API4000 LC-MS or Shimadzu Prominance/ABSCIEX API4000 LC-MS to determine IC50s of the compounds of the disclosure.

Row | Compound | IC50 (recombinant CYP-21) | IC50 (recombinant CYP-17) | IC50 (recombinant CYP-11)
1 | COc1cc(F)ccc1-c1ccc(C(F)c2ccncc2)cc1 (stereo not drawn) [Entry 1, 4-[Fluoro-(4′-fluoro-2′-methoxy-biphenyl-4-yl)-methyl]-pyridine] | 1.5 µM | 0.22 µM | ≥ 10 µM
2 | COc1ccc(-c2ccc(C(c3ccncc3)N3CCN(C)CC3)cc2)cc1OC (stereo not drawn) [Entry 12, 1-((3′4′-dimethoxy-[1,1′-biphenyl]-4-yl)(pyridin-4-yl)methyl)-4-methylpiperazine] | ≥ 10 µM | 0.077 µM | –
3 | COc1cc(F)ccc1-c1ccc(C2(c3ccncc3)OCCO2)cc1 [Entry 4, 4-[2-(4′-Fluoro-2′-methoxy-biphenyl-4-yl)-[1,3]dioxolan-2-yl]-pyridine] | 0.32 µM | – | ≥ 10 µM
4 | COc1cc(F)ccc1-c1ccc(C2(c3ccncc3)OCC(C)CO2)cc1 (stereo not drawn) [Entry 5, 4-[2-(4′-Fluoro-2′-methoxy-biphenyl-4-yl)-5-methyl-[1,3]dioxan-2-yl]-pyridine] | 0.52 µM | 0.126 µM | ≥ 10 µM
5 | COc1ccc(-c2ccc(C(F)c3ccncc3)cc2)cc1OC (stereo not drawn) [Entry 7] | 0.94 µM | 0.014 µM | ≥ 10 µM
6 | COc1ccc(-c2ccc(C(c3ccncc3)N3CCCCC3)cc2)cc1OC (stereo not drawn) [Entry 9] | 1.2 µM | 0.014 µM | –
7 | COc1ccc(-c2ccc(C(F)(F)c3ccncc3)cc2)cc1OC [Entry 8] | 0.408 µM | 0.034 µM | ≥ 10 µM
8 | COc1ccc(-c2ccc(C(c3ccncc3)N3CCCC3)cc2)cc1OC (stereo not drawn) [Entry 11, 4-((3′4′-dimethoxy-[1,1′-biphenyl]-4-yl)(pyrrolidin-1-yl)methyl)pyridine] | 2.5 µM | 0.01 µM | –
9 | COc1ccc(-c2ccc(C(OC(C)C)c3ccncc3)cc2)cc1OC (stereo not drawn) [Entry 13, 4-(isopropoxy(3′,4′-dimethoxy-[1,1′-biphenyl]-4-yl)methyl)pyridine] | 0.21 µM | 0.01 µM | –
10 | COc1ccc(-c2ccc(C(c3ccncc3)N3CCOCC3)cc2)cc1OC (stereo not drawn) [Entry 10, 4-((3′,4′-Dimethoxy-[1,1′-biphenyl]-4-yl)(pyridin-4-yl)methyl)morpholine] | 1.8 µM | 0.01 µM | –
11 | COc1cc(F)ccc1-c1ccc(C2(c3ccncc3)OCCO2)cc1 [Entry 3, 4-[2-(4′-Fluoro-2′-methoxy-biphenyl-4-yl)-[1,3]dioxolan-2-yl]-pyridine] | 0.82 µM | – | 2 µM

Second part, the molecule after the results:

Row | IC50 (recombinant CYP-21) | IC50 (recombinant CYP-17) | IC50 (recombinant CYP-11) | Compound
12 | ≥ 10 µM | 0.77 µM | ≥ 10 µM | COc1cc(F)ccc1-c1ccc(C(c2ccncc2)N2CCCCC2)cc1 (stereo not drawn) [Entry 18, 4-((4′-fluoro-2′-methoxy-[1,1′-biphenyl]-4-yl)(piperidin-1-yl)methyl)pyridine]
13 | 0.19 µM | 0.026 µM | – | CCOC(c1ccncc1)c1ccc(-c2ccc(OC)c(OC)c2)cc1 (stereo not drawn) [Entry 14, 4-(ethoxy(3′,4′-dimethoxy-[1,1′-biphenyl]-4-yl)methyl)pyridine]
14 | ≥ 10 µM | 0.18 µM | ≥ 10 µM | COc1cc(F)ccc1-c1ccc(C(c2ccncc2)N2CCN(c3ccccc3)CC2)cc1 (stereo not drawn) [Entry 22, 1-((4′-fluoro-2′-methoxy-[1,1′-biphenyl]-4-yl)(pyridin-4-yl)methyl)-4-phenylpiperazine]
15 | ≥ 10 µM | 0.12 µM | ≥ 10 µM | COc1cc(F)ccc1-c1ccc(C(NCCN)c2ccncc2)cc1 (stereo not drawn) [Entry 26, N1-((4′-fluoro-2′-methoxy-[1,1′-biphenyl]-4-yl)(pyridin-4-yl)methyl)ethane-1,2-diamine]
16 | 0.524 µM | ≥ 10 µM | ≥ 10 µM | COc1cc(F)ccc1-c1ccc(C(OC)c2ccncc2)cc1 (stereo not drawn) [Entry 33, 4-((4′-fluoro-2′-methoxy-[1,1′-biphenyl]-4-yl)(methoxy)methyl)pyridine]
17 | 0.62 µM | 0.51 µM | 0.48 µM | COc1cccc(-c2ccc(C(OC)c3ccncc3)cc2)c1 (stereo not drawn) [Entry 34, 4-(methoxy(3′-methoxy-[1,1′-biphenyl]-4-yl)methyl)pyridine]
18 | ≥ 10 µM | 0.254 µM | ≥ 10 µM | COc1cc(F)ccc1-c1ccc(C(c2ccncc2)N2CCCC2)cc1 (stereo not drawn) [Entry 19, 4-((4′-fluoro-2′-methoxy-[1,1′-biphenyl]-4-yl)(pyrrolidin-1-yl)methyl)pyridine]
19 | 2.4 µM | 0.027 µM | ≥ 10 µM | COc1cccc(-c2ccc(C(c3ccncc3)N3CCCCC3)cc2)c1 (stereo not drawn) [Entry 31, 4-((3′-methoxy-[1,1′-biphenyl]-4-yl)(piperidin-1-yl)methyl)pyridine]
20 | ≥ 10 µM | 0.117 µM | ≥ 10 µM | CCN1CCN(C(c2ccncc2)c2ccc(-c3ccc(F)cc3OC)cc2)CC1 (stereo not drawn) [Entry 28, 1-ethyl-4-((4′-fluoro-2′-methoxy-[1,1′-biphenyl]-4-yl)(pyridin-4-yl)methyl)piperazine]
21 | 0.18 µM | 0.011 µM | – | COc1ccc(-c2ccc(C(OC)c3ccncc3)cc2)cc1OC (stereo not drawn) [Entry 15, 4-(methoxy(3′,4′-dimethoxy-[1,1′-biphenyl]-4-yl)methyl)pyridine]
